Data published in patent US20120129833A1, “CYCLIC KETOENOLS FOR THERAPY” (BAYER PHARMA AKTIENGESELLSCHAFT, priority 2010, published 2012).

Columns and labels:
[1] = molecular target: T1, recombinant human ACC1 (acetyl-CoA carboxylase 1) (Homo sapiens, UniProt Q13085); test: Human ACC1 enzyme assay (HTRF ADP detection); type: biochemical; settings: 50 μM ATP, 20 μM acetyl-CoA, 15 min pre-incubation, 20 min at 22° C.; read-out: ACC 1 IC50;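 further: ADP by-product quantified by competitive HTRF immunoassay with europium cryptate anti-ADP antibody and d2-labelled ADP, read after 1 h binding at 22 °C, enzyme near 2.5 ng/µl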
T1 construct: NM_198834, amino acids 39—end; FLAG (C); made in house; host or cells: baculovirus-transfected insect cells (Hi5)
Protocol: The basic principle of the assay is the measurement of adenosine diphosphate (ADP), which is formed as a by-product, by means of an HTRF®-based competitive immunoassay (HTRF=Homogeneous Time Resolved Fluorescence).
The amount of complex of d2-labelled ADP and europium cryptate-labelled anti-ADP antibody was then determined by measuring the resonance energy transfer of europium cryptate to d2.

[2] = molecular target: T2, ACC2 (acetyl-CoA carboxylase 2) (Homo sapiens, UniProt O00763); test: Human ACC2 enzyme assay (HTRF ADP detection); type: biochemical; settings: 20 μM acetyl-CoA, 15 min pre-incubation, 20 min at 22° C.; read-out: ACC 2 IC50
T2 construct: catalogue no; 50201, amino acids 39—end, expressed in baculovirus-transfected Sf9 insect cells; His (C); purchased BPS Bioscience (San Diego, Calif.) 50201; host or cells: baculovirus-transfected Sf9 insect cells
T2 sequence (O00763 39-2458 limits assumed): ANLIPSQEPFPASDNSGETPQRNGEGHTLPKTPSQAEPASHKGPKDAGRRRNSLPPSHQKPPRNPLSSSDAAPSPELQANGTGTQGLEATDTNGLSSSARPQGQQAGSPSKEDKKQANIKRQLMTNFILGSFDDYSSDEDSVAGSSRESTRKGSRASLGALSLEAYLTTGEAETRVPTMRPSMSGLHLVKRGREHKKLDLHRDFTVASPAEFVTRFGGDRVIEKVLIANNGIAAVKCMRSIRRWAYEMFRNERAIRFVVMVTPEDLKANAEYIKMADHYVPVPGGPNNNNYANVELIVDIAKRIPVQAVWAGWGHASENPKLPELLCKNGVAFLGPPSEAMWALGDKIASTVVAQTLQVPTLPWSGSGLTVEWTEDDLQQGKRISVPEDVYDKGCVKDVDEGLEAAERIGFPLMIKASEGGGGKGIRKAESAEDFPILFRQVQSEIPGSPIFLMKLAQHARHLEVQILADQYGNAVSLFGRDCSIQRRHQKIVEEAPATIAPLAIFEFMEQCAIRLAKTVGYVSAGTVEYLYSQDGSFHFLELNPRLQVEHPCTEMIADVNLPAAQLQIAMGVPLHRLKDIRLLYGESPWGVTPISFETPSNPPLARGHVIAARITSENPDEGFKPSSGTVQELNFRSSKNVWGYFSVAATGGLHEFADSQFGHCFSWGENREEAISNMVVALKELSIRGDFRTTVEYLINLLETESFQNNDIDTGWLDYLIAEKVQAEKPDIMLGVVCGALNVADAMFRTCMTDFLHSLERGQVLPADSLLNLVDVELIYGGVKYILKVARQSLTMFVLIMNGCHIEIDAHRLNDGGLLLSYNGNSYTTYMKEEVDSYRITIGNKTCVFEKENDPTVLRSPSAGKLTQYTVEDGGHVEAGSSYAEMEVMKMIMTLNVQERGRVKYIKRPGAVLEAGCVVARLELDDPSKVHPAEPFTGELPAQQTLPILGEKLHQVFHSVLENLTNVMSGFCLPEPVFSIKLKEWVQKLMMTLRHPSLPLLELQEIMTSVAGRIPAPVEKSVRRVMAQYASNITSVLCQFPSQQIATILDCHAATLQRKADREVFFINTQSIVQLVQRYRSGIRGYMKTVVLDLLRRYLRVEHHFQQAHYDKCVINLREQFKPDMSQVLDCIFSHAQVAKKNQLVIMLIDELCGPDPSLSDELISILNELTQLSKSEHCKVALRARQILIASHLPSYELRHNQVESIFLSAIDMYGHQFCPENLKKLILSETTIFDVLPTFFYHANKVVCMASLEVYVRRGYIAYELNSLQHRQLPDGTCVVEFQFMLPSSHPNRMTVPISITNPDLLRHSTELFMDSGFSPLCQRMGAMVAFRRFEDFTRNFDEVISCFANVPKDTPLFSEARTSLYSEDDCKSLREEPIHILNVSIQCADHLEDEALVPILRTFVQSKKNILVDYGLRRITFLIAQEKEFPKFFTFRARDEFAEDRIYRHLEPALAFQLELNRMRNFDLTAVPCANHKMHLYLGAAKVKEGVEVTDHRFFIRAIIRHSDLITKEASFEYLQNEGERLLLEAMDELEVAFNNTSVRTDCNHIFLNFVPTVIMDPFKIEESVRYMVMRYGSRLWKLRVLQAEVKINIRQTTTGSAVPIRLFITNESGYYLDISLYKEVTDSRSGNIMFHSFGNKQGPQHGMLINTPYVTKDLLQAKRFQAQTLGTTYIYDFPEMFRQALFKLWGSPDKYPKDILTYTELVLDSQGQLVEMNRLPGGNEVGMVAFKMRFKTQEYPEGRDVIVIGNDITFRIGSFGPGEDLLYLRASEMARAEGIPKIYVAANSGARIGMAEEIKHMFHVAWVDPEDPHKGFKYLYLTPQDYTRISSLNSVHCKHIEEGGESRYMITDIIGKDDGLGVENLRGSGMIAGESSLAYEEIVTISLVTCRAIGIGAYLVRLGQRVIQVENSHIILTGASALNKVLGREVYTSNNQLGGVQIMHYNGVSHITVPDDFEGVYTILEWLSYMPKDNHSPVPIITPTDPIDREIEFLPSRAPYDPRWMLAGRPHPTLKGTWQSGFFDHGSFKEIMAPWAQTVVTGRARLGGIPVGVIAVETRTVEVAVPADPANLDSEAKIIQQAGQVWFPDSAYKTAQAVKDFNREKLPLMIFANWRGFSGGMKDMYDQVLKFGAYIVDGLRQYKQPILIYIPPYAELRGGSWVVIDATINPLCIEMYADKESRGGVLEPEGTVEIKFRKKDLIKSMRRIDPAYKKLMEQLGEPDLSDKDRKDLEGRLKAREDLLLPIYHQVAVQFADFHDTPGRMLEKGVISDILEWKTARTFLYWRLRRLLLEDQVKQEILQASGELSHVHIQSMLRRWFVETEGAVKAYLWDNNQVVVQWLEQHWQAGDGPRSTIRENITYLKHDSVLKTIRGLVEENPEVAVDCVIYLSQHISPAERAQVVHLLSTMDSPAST

IC50 [1] [nM]	IC50 [2] [nM]	SMILES
666	1550	COC1CCCC2(C1)OC(=O)C(c1cc(-c3ccc(Cl)cc3)c(C)cc1C)=C2O (stereo not drawn) [Example 2-11, 3-(4′-chloro-4,6-dimethylbiphenyl-3-yl)-4-hydroxy-7-methoxy-1-oxaspiro[4.5]dec-3-en-2-one]
587	> 20000	Cc1ccc(-c2ccc(Cl)cc2)cc1C1C(=O)N2CC(C)(F)CN2C1=O [Example 8-12, 2-(4′-chloro-4-methylbiphenyl-3-yl)-6-fluoro-6-methyldihydro-1H,5H-pyrazolo[1,2-a]pyrazole-1,3(2H)-dione]
655	16000	Cc1ccc(-c2ccc(C)c(C3=C(O)C4(CCCCC4)CC3=O)c2)cc1 [Example 6-1, 3-(4,4′-dimethylbiphenyl-3-yl)-4-hydroxyspiro[4.5]dec-3-en-2-one]
161	2350	Cc1ccc(-c2ccc(Cl)cc2)cc1C1=C(O)C2(CCCCC2)OC1=O [Example 2-10, 3-(4′-chloro-4-methylbiphenyl-3-yl)-4-hydroxy-1-oxaspiro[4.5]dec-3-en-2-one]
1970	> 20000	CN1C(=O)C(c2cc(-c3ccc(Cl)cc3)ccc2Cl)C(=O)N1C [Example 8-15, 4-(4,4′-dichlorobiphenyl-3-yl)-1,2-dimethyl-1H-pyrazole-3,5(2H,4H)-dione]
742	> 20000	Cc1ccc(-c2ccc(C)c(C3=C(O)C4(CCOCC4)NC3=O)c2)cc1 [Example 1-15, 3-(4,4′-dimethylbiphenyl-3-yl)-4-hydroxy-8-oxa-1-azaspiro[4.5]dec-3-en-2-one]
647	11000	CC1COC2(CCC3(CC2)NC(=O)C(c2cc(-c4ccc(Cl)cc4)ccc2Cl)=C3O)OC1 (stereo not drawn) [Example 1-69, 3-(4,4′-dichlorobiphenyl-3-yl)-4-hydroxy-1′-methyl-9,13-dioxa-1-azadispiro[4.2.5.2]pentadec-3-en-2-one]
1200	15000	Cc1ccc(-c2ccc(F)cc2)c(C)c1C1=C(O)C2(CCCCC2)NC1=O [Example 1-40, 3-(4′-fluoro-2,4-dimethylbiphenyl-3-yl)-4-hydroxy-1-azaspiro[4.5]dec-3-en-2-one]

SMILES	IC50 [1] [nM]	IC50 [2] [nM]
CC1COC2(CCC3(CC2)NC(=O)C(c2cc(-c4ccc(Cl)cc4)ccc2Cl)=C3O)O1 (stereo not drawn) [Example 1-68, 11-(4,4′-dichlorobiphenyl-3-yl)-12-hydroxy-2-methyl-1,4-dioxa-9-azadispiro[4.2.4.2]tetradec-11-en-10-one]	489	4860
